Measurements taken from ChEMBL document CHEMBL6092150, “Exploration of isatin-based inhibitors of SARS-CoV-2 Nsp15 endoribonuclease” (Eur J Med Chem, 2024).

What was measured:
SARS-CoV-2 [1] = experiment: Antiviral activity against SARS-CoV-2 Omicron BA.7 variant infected in human A549 cells transfected with human ACE2 and TMPRSS2 assessed as fold reduction in viral RNA load incubated for 3 days by qRT-PCR analysis; assay type: functional; details: Severe acute respiratory syndrome coronavirus 2, Omicron BA.7, A549, 72 h; time 3 day
SARS-CoV-2 [2] = experiment: Antiviral activity against SARS-CoV-2 Omicron BA.7 variant infected in human A549 cells transfected with human ACE2 and TMPRSS2 assessed as fold reduction in viral RNA load at 80 uM incubated for 3 days by qRT-PCR analysis relative to control; assay type: functional, Severe acute respiratory syndrome coronavirus 2; details: time 3 day
SARS-CoV-2 [3] = experiment: Antiviral activity against SARS-CoV-2 Omicron BA.7 variant infected in human A549 cells transfected with human ACE2 and TMPRSS2 assessed as fold reduction in viral RNA load at 40 uM incubated for 3 days by qRT-PCR analysis relative to control; assay type: functional, Severe acute respiratory syndrome coronavirus 2; details: time 3 day

N#CC(C#N)=C1C(=O)Nc2ccc([N+](=O)[O-])cc21
EC90 (SARS-CoV-2 [1]): 54 µM
fold change (FC) (SARS-CoV-2 [2]): 425

N#CC(C#N)=C1C(=O)Nc2c(Br)cc(Br)cc21
EC90 (SARS-CoV-2 [1]): 39 µM
fold change (FC) (SARS-CoV-2 [2]): 68000

N#C[C@@]1(c2ccc3c(N)ncnn23)O[C@H](CO)[C@@H](O)[C@H]1O [GS-441524]
fold change (FC) (SARS-CoV-2 [3]): 72000
EC90 (SARS-CoV-2 [1]): 2 µM
